Test results: US20250281453A1, “COMBINATION THERAPIES COMPRISING QTX125” (QUIMATRYX, S.L., priority 2022, published 2025)

Tests used:
[1] = tested on: Hep-G2 hepatic cancer cells; assay: Cell viability, ALAMAR blue assay, monotherapy; assay type: cell-based
Method: (§1) In brief, HCT-116, MiaPaCa-2 and Panc-1 cells were thawed in high glucose DMEM (Sigma D5796) with 10% heat-inactivated Foetal Calf Serum (FCS) (PAA, A15-101)). Hep-G2 and SK-Hep1 cells were thawed in Minimum Essential Media (MEM) (Sigma M2279) with 1% non-essential amino acids (Sigma M7145), 2 mM Glutamine (Sigma G7513) and 10% FCS. SK-OV-3 cells were thawed in McCoy's 5A medium (Sigma, M8403) with 15% FCS. All cells were passaged by washing once in cation-free dPBS (Sigma, D1408), and incubated for 3 minutes with trypsin ([0.5 μg/ml]/EDTA [0.2 μg/ml] (Sigma, T4174) in dPBS). Passage was completed at 37° C., and cells were transferred to the appropriate media. Prior to seeding at defined cell density, cells were recovered in medium, centrifuged and resuspended for counting.
(§2) To prepare cells for viability assays, cells were transferred into 96 well tissue culture plates (Cultek), and resuspended in 100 µL at the following densities: 10,000 cells/well (Hep-G2 and MiaPaCa-2), 5000 cells/well (Panc-1 and SK-OV-3) or 3000 cells/well (HCT-116). Following 24 hours of incubation, media was removed and replaced with 100 µL media spiked with QTX125 and the test chemotherapeutic agents. Stock solutions for the agents used in this study are shown below in Table 1. Cells were incubated for a further 72 hours before cell viability was assessed using both ALAMAR® and hexosaminidase assays.
(§3) For the ALAMAR® blue assay, media containing QTX125 and the test chemotherapeutic agents was removed, and cells were stained using ALAMAR® blue (BioSource DAL 1100) for 4 hours at 37° C., following the manufacturer's instructions. Relative fluorescent intensity was measured using a Cytofluor® plate reader (Millipore) at 535/590 nm (Excitation/emission). This measure directly correlates with the number of viable cells present in each well.
(§4) A number of appropriate control samples were included. First, absorbance values measured in reagent ‘blank’ wells (containing cell culture medium and colorimetric agent only) were subtracted from ‘test’ sample-containing wells. ‘Blank’ absorbance values were routinely between 5 and 10% of the values recorded in test wells. Absorbance values recorded in test wells were then compared against wells containing (i) cells stimulated with QTX125 only; (ii) cells stimulated with sorafenib, gemcitabine or bortezomib only and/or (iii) unstimulated cells, as appropriate.
(§5) Control values were normalised to 100% and percentage (%) viability was calculated. Data were used to plot log dose-response curves using a sigmoid dose-response (variable slope) equation. EC50 values were obtained using Equation 1, where ‘X’ is the logarithmic concentration; ‘Y’ is the response output and it is assumed that Y starts at bottom of the graph and reaches the top with an overall sigmoid shape.
(§6) Prior to assessing the oncolytic efficacy of QTX125-containing combination therapies, the oncolytic effect of each test agent was assessed in isolation. Dose-response curves were produced by serial dilution (1:1), thereby allowing monotherapy EC50 values to be calculated.
(§7) Chemotherapeutic agents were added to wells at a starting concentration of 100 μM. However, it was quickly determined that it was not possible to use this range for all chemotherapeutic agents tested. An optimization study was therefore completed to identify suitable maximum (‘high’) doses for each agent and in each individual cell line.

[2] = tested on: SK-OV-3 ovarian cancer cells; assay: Cell viability, ALAMAR blue assay, monotherapy; assay type: cell-based
Method: as §1, §2, §3, §4, §5, §6, §7

[3] = tested on: MiaPaCa-2 pancreatic cancer cells; assay: Cell viability, ALAMAR blue assay, monotherapy; assay type: cell-based
Method: as §1, §2, §3, §4, §5, §6, §7

[4] = tested on: multiple sclerosis mice models; conditions: two different multiple sclerosis mice models; cited from earlier work
HDAC 6 = target: T1, HDAC 6 (Homo sapiens, UniProt Q9UBN7); conditions: cited from earlier work
T1 sequence (Q9UBN7 1-1215): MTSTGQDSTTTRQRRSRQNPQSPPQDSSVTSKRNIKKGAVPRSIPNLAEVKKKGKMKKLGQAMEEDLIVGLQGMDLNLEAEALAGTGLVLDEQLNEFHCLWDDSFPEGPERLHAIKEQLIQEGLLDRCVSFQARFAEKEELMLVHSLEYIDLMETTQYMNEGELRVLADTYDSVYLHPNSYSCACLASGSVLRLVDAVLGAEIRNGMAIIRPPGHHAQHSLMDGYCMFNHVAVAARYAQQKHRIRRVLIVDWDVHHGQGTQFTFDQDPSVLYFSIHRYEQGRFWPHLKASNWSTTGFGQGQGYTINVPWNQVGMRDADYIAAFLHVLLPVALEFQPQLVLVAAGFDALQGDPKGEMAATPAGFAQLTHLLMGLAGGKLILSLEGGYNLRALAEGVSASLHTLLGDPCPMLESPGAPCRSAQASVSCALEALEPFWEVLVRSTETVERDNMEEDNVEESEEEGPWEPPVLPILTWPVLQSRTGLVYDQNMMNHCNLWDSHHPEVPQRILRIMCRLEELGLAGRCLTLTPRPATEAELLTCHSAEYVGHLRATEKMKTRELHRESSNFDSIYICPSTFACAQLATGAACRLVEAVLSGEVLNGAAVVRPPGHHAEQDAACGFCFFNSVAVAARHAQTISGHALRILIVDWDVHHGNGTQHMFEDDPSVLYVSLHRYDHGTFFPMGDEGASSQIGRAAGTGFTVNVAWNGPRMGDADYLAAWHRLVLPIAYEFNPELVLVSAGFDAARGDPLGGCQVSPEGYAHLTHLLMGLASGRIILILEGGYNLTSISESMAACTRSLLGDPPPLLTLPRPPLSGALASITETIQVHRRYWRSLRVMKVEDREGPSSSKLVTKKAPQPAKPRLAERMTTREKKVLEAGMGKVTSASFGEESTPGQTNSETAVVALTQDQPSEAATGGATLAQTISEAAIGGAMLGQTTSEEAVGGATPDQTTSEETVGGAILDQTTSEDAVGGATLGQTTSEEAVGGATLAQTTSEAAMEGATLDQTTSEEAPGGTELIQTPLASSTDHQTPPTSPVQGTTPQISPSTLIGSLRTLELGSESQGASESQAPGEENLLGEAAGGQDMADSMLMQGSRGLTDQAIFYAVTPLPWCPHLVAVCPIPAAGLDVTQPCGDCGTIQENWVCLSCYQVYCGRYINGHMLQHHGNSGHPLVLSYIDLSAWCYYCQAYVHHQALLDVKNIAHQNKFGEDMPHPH

[5] = Pharmacokinetic properties; assay type: in vivo; conditions: compared with other histone deacetylase inhibitors
[6] = Genotoxicity (clastogenicity, aneugenicity); conditions: unlike other histone deacetylase inhibitors

EC50 ([1]; Homo sapiens, HepG2, 72 h, read-out: EC50 dose of monotherapy): 0.91 ± 0.2 µM
EC50 ([2]; Homo sapiens, 72 h, read-out: EC50 dose of monotherapy): 3 ± 0.4 µM
EC50 ([3]; Homo sapiens, MIA PaCa-2, 72 h, 72 h, read-out: EC50 dose of monotherapy): 1.79 ± 0.05 µM
Structure (SMILES): O=C(NO)c1ccc(CNC(=O)c2[nH]c(-c3ccc(O)cc3)cc2-c2ccoc2)cc1 [QTX125, 3-(3-Furyl)-N-{4-[(hydroxyamino)carbonyl]benzyl}-5-(4-hydroxyphenyl)-1 Hpyrrole-2-carboxamide]
percentage (%) cell viabilities ([1]; 72 hours of high-dose monotherapy (Table 2: QTX125 5, sorafenib 100, gemcitabine 100, bortezomib 1 μM)): 0.0%
percentage (%) cell viabilities ([2]; 72 hours of high-dose monotherapy (Table 2: QTX125 10, sorafenib 100, gemcitabine 10, bortezomib 1 μM)): 0.0%
percentage (%) cell viabilities ([3]; 72 hours of high-dose monotherapy (Table 2: QTX125 100, sorafenib 100, gemcitabine 100, bortezomib 1 μM)): 0.0%
efficacy in multiple sclerosis mice models [4]: high efficacy
HDAC 6 inhibition (HDAC 6): highly selective and highly potent
pharmacokinetic properties (half-lives and distribution volumes) [5]: higher half-lives and distribution volumes
genotoxicity, in particular clastogenicity or aneugenicity [6]: no evidence of genotoxicity
